In brackets after ≈: the same amount, converted by molar mass.
Assays:
SF-268 = assay: Tested for growth inhibition against human SF-268 CNS cancer cell line at 100 uM; format: functional
Amphibalanus amphitrite = assay: Antifouling activity of compound against Balanus amphitrite expressed by inhibition of settlement of barnacle cyprids; format: functional
MCF7 = assay: Tested for growth inhibition against human MCF-7 breast cancer cell line at 100 uM; format: functional
NCI-H460 [1] = assay: Tested for growth inhibition against human NCI-H460 lung cancer cell line at 100 uM; format: functional
CCRF-CEM = assay: Tested for the cytotoxicity against CCRF-CEM leukemia cell line […]; format: functional; settings: Homo sapiens
NCI-H226 = assay: Tested for the cytotoxicity against NCI-H226 lung cancer cell line […]; format: functional; settings: Homo sapiens
Hs-578T = assay: Tested for the cytotoxicity against Hs 578.T breast cancer cell line; format: functional; settings: Homo sapiens
SW-620 = assay: Tested for the cytotoxicity against SW-620 colon cancer cell line […]; format: functional; settings: Homo sapiens
[2] = Tested for the lethality dose against barnacle cyprids of Balanus amphitrite; settings: Amphibalanus amphitrite; read-out: LD50 (the source's name)
NCI-H460 [3] = assay: Tested for the cytotoxicity against NCI-H460 lung cancer cell line […]; format: functional; settings: Homo sapiens
P388 = assay: Tested for the inhibition against P388 murine leukemia cell; format: functional, cell-based; settings: Mus musculus

| SMILES | Growth (SF-268) | EC50 (Amphibalanus amphitrite) | Growth (MCF7) | Growth (NCI-H460 [1]) | GI50 (CCRF-CEM) | GI50 (NCI-H226) | GI50 (Hs-578T) | GI50 (SW-620) | LC50 [2] | GI50 (NCI-H460 [3]) | IC50 (P388) |
| --- | --- | --- | --- | --- | --- | --- | --- | --- | --- | --- | --- |
| NCCCCOc1c(Br)cc(CCN)cc1Br | 50% | 6 µg/mL (≈ 16.4 µM) | 19% | 25% |  |  |  |  |  |  |  |
| CC(=O)NCCc1cc(Br)c(O)c(Br)c1 | 84% |  | 88% | 105% |  |  |  |  |  |  |  |
| COc1c(Br)cc(CCN)cc1Br | 16% | 0.07 µg/mL (≈ 0.227 µM) | 8% | 53% | < 10 nM | < 10 nM | 200 nM | < 10 nM | 0.2 µg/mL (≈ 0.647 µM) |  |  |
| NCCOc1c(Br)cc(CCN)cc1Br | 70% | 0.8 µg/mL (≈ 2.37 µM) | 39% | 70% |  |  |  |  |  |  |  |
| CCCCCCCC(=O)NCCc1cc(Br)c(OC)c(Br)c1 | -68% | 0.2 µg/mL (≈ 0.46 µM) | -74% | 1% | 400 nM |  |  |  | 1 µg/mL (≈ 2.3 µM) |  |  |
| NCCCOc1ccc(CCN)cc1 | 120% | > 50 µg/mL | 104% | 120% |  |  |  |  |  |  |  |
| CCCCCCCCNCCc1cc(Br)c(OC)c(Br)c1 | -84% | 0.008 µg/mL (≈ 0.019 µM) | -82% | -83% |  |  |  |  | 0.03 µg/mL (≈ 0.0712 µM) | 50 nM |  |
| N#CC(=O)NCCCOc1c(Br)cc(CCN)cc1Br [CERATINAMINE] | 39% |  | 7% | 82% |  |  |  |  |  |  |  |
| NCCCOc1c(Br)cc(CCN)cc1Br [MOLOKA'IAMINE] | 62% | 5 µg/mL (≈ 14.2 µM) | 38% | 68% |  |  |  |  |  |  | 2.1 µg/mL (≈ 5.96 µM) |
| NCCCOc1c(Cl)cc(CCN)cc1Cl | 85% | 33 µg/mL (≈ 125 µM) | -53% | 93% |  |  |  |  |  |  |  |

Source: ChEMBL document CHEMBL1135233, “Cytotoxic, antifouling bromotyramines: a synthetic study on simple marine natural products and Their analogues” (Bioorg Med Chem Lett, 2002)
